According to US20080227815A1, “Crystal of Indole Derivative Having Piperidine Ring and Process for Production Thereof” (priority 2005, published 2008):
Where a name gives a salt, the structure may show the parent alone.

Key:
Rat 5-HT1A = target: T1, Rat 5-HT1A (Rattus norvegicus, UniProt P19327); assay: Affinity for rat serotonin1A receptor ([3H]MPPF binding to rat hippocampal membrane fraction); settings: pH 7.4, 25° C., 60 min, non-specific binding with 10 μM serotonin, Ki from IC50, tracer concentration and Kd (Scatchard)
T1 construct: A rat hippocampus sample was homogenized in a 50 mM Tris-HCl buffer; from tissue; host or cells: rat hippocampus (membrane fraction)
T1 sequence (P19327 1-422): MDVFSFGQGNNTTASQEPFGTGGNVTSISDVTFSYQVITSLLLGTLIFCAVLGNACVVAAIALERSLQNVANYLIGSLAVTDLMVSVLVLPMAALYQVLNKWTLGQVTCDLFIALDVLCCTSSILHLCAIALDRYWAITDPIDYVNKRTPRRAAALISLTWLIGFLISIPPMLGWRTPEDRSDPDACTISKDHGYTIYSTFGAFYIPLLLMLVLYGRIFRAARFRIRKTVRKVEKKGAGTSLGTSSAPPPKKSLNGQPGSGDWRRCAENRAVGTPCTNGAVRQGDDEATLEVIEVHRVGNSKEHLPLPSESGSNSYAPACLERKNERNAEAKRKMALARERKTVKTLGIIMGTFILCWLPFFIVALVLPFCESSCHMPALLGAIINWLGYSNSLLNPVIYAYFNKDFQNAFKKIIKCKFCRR
Procedure: Test Regarding Affinity for Rat Serotonin1A Receptor
An MPPF rat hippocampal membrane fraction selectively binding to the 5-HT1A receptor was used to test affinity of a test substance for the rat 5-HT1A receptor.
A rat hippocampus sample was homogenized in a 50 mM Tris-HCl buffer (pH 7.4; hereinafter referred to as “buffer A”) that had been cooled with ice. The suspension was centrifuged at 50,000×g for 20 minutes. The obtained sediment was suspended in buffer solution A, and the resultant solution was then centrifuged at 50,000×g for 20 minutes. The obtained sediment was suspended in buffer solution to obtain a rat hippocampus membrane fraction.
The mixture used for incubation contained an appropriate amount of membrane fraction, a test substance at a desired concentration, [^3H]MPPF, dimethyl sulfoxide and buffer A. The reaction was initiated through the addition of the membrane fraction, and the mixture was incubated at 25° C. for 60 minutes. After incubation, the mixture was subjected to vacuum filtration by passing through a glass filter using a Cell Harvester. The filter was washed 3 times with buffer solution A, and then radioactivity binding to the receptor was measured with a liquid scintillation counter. Non-specific binding was defined as binding detected in the presence of 10 μM serotonin. […]

urinary reflex = assay: Inhibitory action against the increased urinary reflex action due to destruction of the superior colliculus in rats (cystometrogram); format: in vivo, rat (Sprague-Dawley; settings: 1 mg/kg, i.v.; superior colliculus-lesioned female Sprague-Dawley rats; maximal reaction (Emax)
Description: In the present test, Sprague-Dawley female rats (200-350 g) were used. The rats underwent a median incision of the abdomen under anesthesia. A hole with a minor diameter was made on the apex of the bladder, and a catheter used for measurement of an intravesical pressure was placed therein. A catheter used for administration of a test substance was placed in the femoral vein. These catheters were fixed at the occipital region of the rat through the subcutis. One day later, the urinary reflex of the rats was measured with a cystometrogram. Thereafter, the rats were fixed on a brain stereotaxis apparatus under anesthesia, and then subjected to a median incision of the scalp. […] Electric current was then applied (65° C., 4 minutes) so as to damage the brain tissue. After completion of the operation, when the rat awoke from the anesthesia, cystometrogram was conducted again to confirm the increased state of urinary reflex. A test substance was administered through the catheter placed in the femoral vein, and the action of the test substance on urinary reflex was evaluated. In addition, the effects of several test substances were compared using the maximal reaction (Emax).

## CNC(=O)c1ccc2ccn(C3CCN(CCc4c(OC)ccc5c4OC(C)(C)CC5=O)CC3)c2c1 [Form D crystal form of fumarate, 1-{1-[2-(7-methoxy-2,2-dimethyl-4-oxochroman-8-yl)ethyl]piperidin-4-yl}-N-methyl-1H-indole-6-carboxamide fumarate (form D crystal)]
Rat 5-HT1A
  Ki: 0.045 nM
Urinary reflex
  Urinary interval Emax: 75%
